Data published in patent US4737496A, “1,3,4,16b-tetra hydro-2H,10H-indolo[2,1-c]pyrazino-[1,2-a][1,4]benzodiazepines useful as serotonin-2 receptor antagonists” (Ciba-Geigy Corporation, priority 1986, dated 1988).

Columns and labels:
serotonin-2 receptor [1] = molecular target: T1, serotonin-2 receptor (Rattus norvegicus, UniProt P14842); experiment: biochemical
Protocol: The serotonin-2 receptor (also named 5-hydroxytryptamine-2 or 5HT-2 receptor) binding properties are determined in vitro by measuring the ability of said compounds to inhibit the specific binding of ^3 H-ketanserin, in membrane preparations of frontal/parietal cortex from male Sprague-Dawley rats essentially as described by Battaglia et al. in Life Sciences 33, 2011 (1983). IC50 values, representing the concentration of compound required to displace 50% of ^3 H-ketanserin, are determined by log-logit analysis of the specific binding data.

serotonin-2 receptor [2] = molecular target: T1, serotonin-2 receptor; experiment: in vivo displacement of 3H-spiperone binding in rat brain; design: serotonin-2 receptors in rat brain; from tissue; host or cells: rat brain, in vivo; details: ip
Protocol: In vivo, the compounds according to the present application displace the binding of ^3 H-spiperone to serotonin-2 receptors in rat brain. Illustrative of the invention, the compound of example 1 displaces the binding of ^3 H-spiperone with an ED50 value of about 2 mg/Kg i.p.

serotonin-2 receptor [3] = molecular target: T1, serotonin-2 receptor; experiment: 5-hydroxytryptophane-induced head twitch test; assay type: in vivo; design: membrane preparations of frontal/parietal cortex from male Sprague-Dawley rats; from tissue; host or cells: frontal/parietal cortex membranes, male Sprague-Dawley rat; details: po, 5-HTP induced head twitch, read-out: effective dose in the head twitch test
Protocol: The head twitch test for assessing central nervous system serotonin-2 receptor antagonism in the rat is described in Neuropharmacology 16, 663 (1977) and in J. Pharmacol. Exp. Ther. 228, 133 (1984). The test is carried out as follows:
Male Wistar rats (120-180 g) are fasted for 18 hours prior to testing but allowed water ad libitum. All animals are pretreated with the peripheral decarboxylase inhibitor alpha-methyl-DOPA hydrazine (carbidopa, 25 mg/kg i.p., 4.0 ml/kg) followed 30 minutes later by 5-hydroxy-tryptophane (5-HTP 100 mg/kg s.c., 4.0 ml/kg). Ninety minutes after receiving 5-HTP, the rats are placed individually in plexiglass observation cages and the frequency of head twitches for each animal is counted over a 10 minute observation period. The test compound or vehicle is administered at either 0.5 hour at 1.0 ml/kg i.p. or at 1, 2 or 4 hours at 10 ml/kg p.o. prior to the observation period. ED50 values are determined by probit analysis.

T1 sequence (P14842 whole entry): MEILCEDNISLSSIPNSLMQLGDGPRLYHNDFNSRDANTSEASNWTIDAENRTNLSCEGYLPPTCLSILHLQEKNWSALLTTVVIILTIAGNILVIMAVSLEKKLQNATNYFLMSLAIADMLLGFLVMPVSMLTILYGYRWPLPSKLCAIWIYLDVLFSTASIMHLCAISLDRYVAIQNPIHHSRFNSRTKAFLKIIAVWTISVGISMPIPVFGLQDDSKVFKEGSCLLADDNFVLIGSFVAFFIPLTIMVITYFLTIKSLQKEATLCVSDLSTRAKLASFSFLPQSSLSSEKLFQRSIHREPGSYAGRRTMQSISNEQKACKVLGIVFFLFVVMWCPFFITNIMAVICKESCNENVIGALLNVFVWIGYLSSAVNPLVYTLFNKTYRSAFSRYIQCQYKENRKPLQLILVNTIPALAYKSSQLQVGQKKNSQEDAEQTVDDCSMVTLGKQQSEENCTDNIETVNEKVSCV

COC(=O)c1c2n(c3ccccc13)Cc1ccccc1N1CCN(C)CC21 (stereo not drawn) [Example 1, methyl 1,3,4,16b-tetrahydro-2-methyl-2H,10H-indolo[2,1-c]pyrazino[1,2-a][1,4]benzodiazepine-16-carboxylate]
IC50 (serotonin-2 receptor [1]): ~4 nM
ED50 (serotonin-2 receptor [2]): ~2 mg/kg
ED50 (serotonin-2 receptor [3]): ~3 mg/kg
